Values of other authors as cited in patent US20190054051A1, “DOPA Formulations for Treatments of Parkinson's Disease” (The Board of Trustees of the Leland Stanford Junior …, priority 2017, published 2019).

Assays:
[1] = cited from earlier work
animal models of PD = details: previously reported; cited from earlier work

SMILES	solubility in water [1]	L-DOPA induced dyskinesia (dyskinetic behavior following DOPA treatment) (animal models of PD)
C[C@@](Cc1ccc(O)c(O)c1)(NN)C(=O)O [Carbidopa, N-amino-α-methyl-3-hydroxy-L-tyrosine monohydrate]	slightly soluble in water	
NC(N)=Nc1nc(CSCCC(N)=NS(N)(=O)=O)cs1 [famotidine]		decreased the dyskinetic behavior
